Data: article PMC9032663, “α-Glucosidase Inhibitory and Antimicrobial Benzoylphloroglucinols from Garcinia schomburgakiana Fruits: In Vitro and In Silico Studies” (Molecules, 2022)
In brackets after ≈: the same amount, converted by molar mass. Where two headings read alike, the source gives them in different places.

Assays:
α-glucosidase = α-glucosidase inhibition assay; type: biochemical, yeast; details: in vitro; read-out: α-glucosidase inhibitory activity IC50
Method: The enzymatic reaction was carried out at 37 °C for 20 min and stopped by adding 0.2 M Na2CO3 (130 μL). Enzymatic activity was quantified by measuring absorbance at 405 nm. All samples were analyzed in triplicate at five different concentrations around the IC50 values, and the mean values were retained.

S. aureus [1] = experiment: MIC determination; type: cell-based, Staphylococcus aureus
Acinetobacter baumannii = experiment: agar well diffusion antibacterial assay; type: cell-based; details: A. baumannii, at the tested concentration
Method: (§1) The agar well diffusion method was used to evaluate the antibacterial activity of the isolated compounds on antibiotic-resistant, pathogenic bacteria Staphylococcus aureus, Enterococcus faecium, and Acinetobacter baumannii. Three bacterial pathogens were cultured in nutrient broth at 37 °C for 18 h. The cultures were diluted with sterile 0.9% NaCl to obtain bacterial solutions of 1.5 × 10^8 CFU/mL. This solution with a volume of 100 μL was spread on a Mueller–Hinton agar plate. Holes with a diameter of 8 mm were punched aseptically to create wells on the surface of the Mueller–Hinton agar. The compounds were dissolved in DMSO. The amount of 50 µg of each compound solution was inserted into the wells. The plates were incubated at 37 °C for 16–18 h, and the antibacterial activity of each compound was recorded by measuring the diameters of the inhibition zones surrounding the wells. DMSO was used as a control. […] Kanamycin was used as the positive control in this experiment.

Staphylococcus aureus = experiment: agar well diffusion antibacterial assay; type: cell-based; details: S. aureus, concentration of 50 µg/mL
Method: as §1

Enterococcus faecium = experiment: agar well diffusion antibacterial assay; type: cell-based; details: E. faecium, concentration of 50 µg/mL
Method: as §1

cytotoxicity assay = type: cell-based; details: human, HEK293 cells (normal cell line)
Description: The cytotoxic evaluation of compound 1 against the HEK293 normal cell line was applied from a previous procedure.

S. aureus [2] = system: S. aureus; parameters: method as in PMID 27458464; details: cited from earlier work

Compound: CC(C)=CCCC1(C)C(CC=C(C)C)CC23CCC(C)(C)OC2=C(C(=O)c2ccc(O)c(O)c2)C(=O)C1(CC=C(C)C)C3=O (centres unmarked) [Compound 1, schomburgkianone I]
- IC50 (α-glucosidase): 21.2 µM
- MIC (S. aureus [1]; Staphylococcus aureus): 13.3 µM (≈ 8.03 µg/mL)
- antimicrobial activity (Acinetobacter baumannii): failed to show any activity
- zone of inhibition at 50 µg/mL (Staphylococcus aureus): 21 mm
- zone of inhibition at 50 µg/mL (Enterococcus faecium): 20 mm
- IC50 (cytotoxicity assay): 87 µM

Compound: NC[C@H]1O[C@H](O[C@H]2[C@H](O)[C@@H](O[C@H]3O[C@H](CO)[C@@H](O)[C@H](N)[C@H]3O)[C@H](N)C[C@@H]2N)[C@H](O)[C@@H](O)[C@@H]1O [kanamycin, reference compound]
- MIC (S. aureus [1]): 8.26 µM (≈ 4 µg/mL)

Compound: Guttiferone BL
- activity against S. aureus (S. aureus [2]): low activity
